Measured values from ChEMBL document CHEMBL1141211, “2-(Quinazolin-4-ylamino)-[1,4]benzoquinones as covalent-binding, irreversible inhibitors of the kinase domain of vascular endothelial growth factor receptor-2” (J Med Chem, 2005).

What was measured:
[1] = molecular target: T1, Vascular endothelial growth factor receptor 2 (Homo sapiens, UniProt P35968); assay: Inhibitory activity against VEGF stimulated autophosphorylation of VEGFR2 expressed in KDR15 cells; assay type: cell-based
[2] = Half life at 10 uM in the presence of 100 uM reduced glutathione in H2O-Acetonitrile (1:1); assay type: ADME; conditions: reduced glutathione solution in H2O-acetonitrile (1:1)
[3] = molecular target: T1, Vascular endothelial growth factor receptor 2; assay: Inhibition of poly(Glu4-Tyr)peptide phosphorylation by recombinant VEGFR2 at 10 uM ATP and in presence of 5% mouse plasma; assay type: cell-free
[4] = molecular target: T1, Vascular endothelial growth factor receptor 2; assay: Inhibition of poly(Glu4-Tyr)peptide phosphorylation by recombinant VEGFR2 at 10 uM ATP and in presence of 100 uM glutathione
[5] = molecular target: T1, Vascular endothelial growth factor receptor 2; assay: Inhibition of poly(Glu4-Tyr)peptide phosphorylation by recombinant VEGFR2 at 10 uM ATP
[6] = Half life at 1 uM in the presence of 100 uM reduced glutathione in H2O-Acetonitrile (1:1); assay type: ADME; conditions: reduced glutathione solution in H2O-acetonitrile (1:1)

T1 sequence (P35968 whole entry): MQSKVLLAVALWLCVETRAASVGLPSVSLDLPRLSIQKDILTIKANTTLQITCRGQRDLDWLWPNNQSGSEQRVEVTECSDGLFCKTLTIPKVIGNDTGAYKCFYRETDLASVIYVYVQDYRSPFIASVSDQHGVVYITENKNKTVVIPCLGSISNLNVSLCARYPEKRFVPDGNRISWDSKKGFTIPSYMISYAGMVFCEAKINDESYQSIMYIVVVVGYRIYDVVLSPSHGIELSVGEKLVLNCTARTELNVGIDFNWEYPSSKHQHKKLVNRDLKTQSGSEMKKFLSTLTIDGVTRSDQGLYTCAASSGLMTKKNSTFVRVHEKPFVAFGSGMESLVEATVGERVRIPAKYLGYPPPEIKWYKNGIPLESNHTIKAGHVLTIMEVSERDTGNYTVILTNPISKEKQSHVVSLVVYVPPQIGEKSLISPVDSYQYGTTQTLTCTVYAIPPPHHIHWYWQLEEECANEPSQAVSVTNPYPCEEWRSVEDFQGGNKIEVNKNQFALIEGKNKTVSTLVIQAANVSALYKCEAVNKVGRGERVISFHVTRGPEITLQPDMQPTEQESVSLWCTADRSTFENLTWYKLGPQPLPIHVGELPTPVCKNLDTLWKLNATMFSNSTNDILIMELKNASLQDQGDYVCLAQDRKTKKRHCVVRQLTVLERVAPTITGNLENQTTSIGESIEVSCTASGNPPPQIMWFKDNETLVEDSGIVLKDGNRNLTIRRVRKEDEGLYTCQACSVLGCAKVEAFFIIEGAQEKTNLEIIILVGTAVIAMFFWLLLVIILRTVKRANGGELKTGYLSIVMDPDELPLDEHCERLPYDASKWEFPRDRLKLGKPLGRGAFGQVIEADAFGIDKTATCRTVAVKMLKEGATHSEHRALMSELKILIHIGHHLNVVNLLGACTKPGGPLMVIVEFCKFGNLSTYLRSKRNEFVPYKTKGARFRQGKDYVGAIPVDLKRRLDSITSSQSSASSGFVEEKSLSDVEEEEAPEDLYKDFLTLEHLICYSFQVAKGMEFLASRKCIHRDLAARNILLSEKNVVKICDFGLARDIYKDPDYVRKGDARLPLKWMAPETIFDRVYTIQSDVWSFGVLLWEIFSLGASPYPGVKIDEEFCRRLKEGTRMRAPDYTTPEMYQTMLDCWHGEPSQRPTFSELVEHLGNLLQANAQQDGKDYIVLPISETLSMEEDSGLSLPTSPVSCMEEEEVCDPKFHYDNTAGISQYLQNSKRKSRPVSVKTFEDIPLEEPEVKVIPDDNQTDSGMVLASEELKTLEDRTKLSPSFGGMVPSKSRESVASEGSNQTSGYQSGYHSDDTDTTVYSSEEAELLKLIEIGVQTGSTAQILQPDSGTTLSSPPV

IC50 [1] [nM] | half-life at 10 µM [2] [h] | IC50 [3] [nM] | IC50 [4] [nM] | IC50 [5] [nM] | half-life at 1 µM [6] [h] | SMILES
> 1000 | 72 | > 1000 | > 1000 | > 1000 | 62 | CCOC1=CC(=O)C(Nc2ncnc3cc(OCCOC)c(OC)cc23)=CC1=O
– | < 0.02 | – | – | – | < 0.02 | COCCOc1cc2ncnc(NC3=CC(=O)C(Cl)=CC3=O)c2cc1OC
– | 601 | – | – | – | 160 | COCCOc1cc2ncnc(NC3=CC(=O)C(N(C)C)=CC3=O)c2cc1OC
– | 227 | – | – | – | 213 | COCCOc1cc2ncnc(NC3=CC(=O)C(OC(C)C)=CC3=O)c2cc1OC
– | 85 | – | – | – | 73 | COCCOc1cc2ncnc(NC3=CC(=O)C(N4CCN(Cc5ccccc5)CC4)=CC3=O)c2cc1OC
– | 0.5 | – | – | – | < 0.5 | COCCOc1cc2ncnc(NC3=CC(=O)C(OC)=C(Cl)C3=O)c2cc1OC
– | < 0.02 | – | – | – | < 0.02 | COCCOc1cc2ncnc(NC3=CC(=O)C(Oc4ccccc4)=CC3=O)c2cc1OC
– | 15 | – | – | – | 11 | COCCOc1cc2ncnc(NC3=CC(=O)C(OC(CF)CF)=CC3=O)c2cc1OC
– | < 0.02 | – | – | – | < 0.02 | COCCOc1cc2ncnc(NC3=CC(=O)C(Oc4ccc(-n5ccnc5)cc4)=CC3=O)c2cc1OC
– | 54 | 366 | 50.3 | 43 | 55 | COCCOc1cc2ncnc(NC3=CC(=O)C(OCc4ccccc4)=CC3=O)c2cc1OC
– | 295 | – | – | – | 341 | COCCOc1cc2ncnc(NC3=CC(=O)C(N(C)c4ccccc4)=CC3=O)c2cc1OC
– | 80 | – | – | – | 68 | COCCOc1cc2ncnc(NC3=CC(=O)C(OC)=CC3=O)c2cc1OC
– | – | > 1000 | > 1000 | > 1000 | – | COCCOc1cc2ncnc(NC3=C(Sc4ccccn4)C(=O)C=C(OC)C3=O)c2cc1OC
– | 3 | – | – | – | 2 | COCCOc1cc2ncnc(NC3=CC(=O)C(SC)=CC3=O)c2cc1OC
– | – | > 1000 | > 1000 | > 1000 | – | COCCOc1cc2ncnc(NC3=CC(=O)C(NCC(C)O)=CC3=O)c2cc1OC (configuration not stated)
– | – | 256 | 41.9 | 31.2 | – | COCCOc1cc2ncnc(NC3=CC(=O)C(OCc4cccc(F)c4)=CC3=O)c2cc1OC
